Assays:
morphine dependent rats = assay: Naloxone-precipitated withdrawal responses in morphine dependent rats; format: in vivo, rat
Experimental: Rats received a depot subcutaneous injection of morphine (150 mg/kg) with or without continuous infusion of D-CYSee (20 μmol/kg/hour, IV) and one day later the rats received an intraperitoneal injection of naloxone HCl (1.5 mg/kg) to elicit withdrawal responses.

[1] = system: morphine-exposed mouse pups; assay: Neonatal opioid withdrawal syndrome (NOWS): naloxone-precipitated somatic signs in morphine-exposed mouse pups; format: in vivo; conditions: D-CYSee 30 mg/kg s.c. given prior to naloxone 1.0 mg/kg
Experimental: FIG. 2 illustrates a schematic timeline of an assay of neonatal morphine exposure of female mice for determining neonatal opioid withdrawal syndrome (NOWS). Female mice are implanted with osmotic mini-pumps containing 20 mg/kg/day morphine sulfate and mated. Offspring are injected twice daily with 10 mg/kg morphine for 14 days.
FIG. 4 illustrates a graph showing D-CYSee modulates NOWS. […] D-CYSee (30 mg/kg s.c.) given prior to naloxone (1.0 mg/kg) reduces all somatic signs of withdrawal except for jumping behavior, which is enhanced.

[2] = rats, D-CYSee 20 μmol/kg/hour IV, naloxone HCl 1.5 mg/kg i.p.

For `CCOC(=O)[C@H](N)CS` [D-CYSee, D-cysteine ethyl ester], the withdrawal responses (morphine dependent rats; morphine 150 mg/kg depot s.c., D-CYSee 20 μmol/kg/hour IV continuous infusion, naloxone HCl 1.5 mg/kg i.p. one day later) was “markedly diminishes”, the “change in mean arterial blood pressure” value (morphine dependent rats; [2]) was “attenuated” and the circling behavior (morphine dependent rats; [2]) was “attenuated”. The episodes of apneas (morphine dependent rats; [2]) was “attenuated”, the “episodes of fore-paw licking” value (morphine dependent rats; [2]) was “attenuated” and the episodes of sneezing (morphine dependent rats; [2]) was “attenuated”. For the same molecule, the jumping behavior (morphine dependent rats; [2]) was “attenuated”, the rearing behavior (morphine dependent rats; [2]) was “attenuated” and the body tremors [1] was “reduces”. The “jumps (jumping behavior)” value [1] was “enhanced”, the paw tremors [1] was “reduces” and the wall climbs [1] was “reduces”.

Source: patent US20250009706A1, “COMPOSITIONS AND METHODS FOR TREATING OPIOID DEPENDENCE AND WITHDRAWAL” (CASE WESTERN RESERVE UNIVERSITY, priority 2021, published 2025)
